Legend:
[1] = tested on: T. cruzi epimastigotes (Tulahuen 2 strain); experiment: In vitro activity on T. cruzi epimastigotes; type: cell-based; details: Trypanosoma cruzi, 120 h, read-out: PGI25μM (%) (epimastigote): percentage of growth inhibition of T. cruzi epimastigote cells
[2] = tested on: T. cruzi; details: cited from earlier work

O=P(O)(O)C(O)(Cc1cccnc1)P(=O)(O)O [NaRis, (1-hydroxy-1-phosphono-2-pyridin-3-yl-ethyl)phosphonate]
inhibition at 25 µM [1]: 19%
Parasitemia in infected mice [2]: significantly reduces the parasitemia
Toxicity in infected mice [2]: no toxicity
Animal survival ([2]; infected mice): increases the animal survival

From article PMC2949467 (Journal of inorganic biochemistry, 2010)
